In one assay the target is Aminopeptidase B (Homo sapiens, UniProt Q9H4A4). The experiment in a line: Inhibition of arginylaminopeptidase (aminopeptidase B). Also noted: species or system Oryctolagus cuniculus.
The test system of assay [1] is Glutamyl aminopeptidase (Oryctolagus cuniculus). The experiment in a line: Inhibition of aminopeptidase A (APA) at 0.4 mM.

As usually defined, the pKi is −log10 of the Ki, conventionally taken in molar units. The low end stands for a large Ki, the high end for a small Ki. As a reminder, the inhibition is the percentage by which the read-out fell short of the control.

Structures are written as SMILES. pKi: −log10 of the molar value.

Aminopeptidase B, sequence (Q9H4A4 whole entry): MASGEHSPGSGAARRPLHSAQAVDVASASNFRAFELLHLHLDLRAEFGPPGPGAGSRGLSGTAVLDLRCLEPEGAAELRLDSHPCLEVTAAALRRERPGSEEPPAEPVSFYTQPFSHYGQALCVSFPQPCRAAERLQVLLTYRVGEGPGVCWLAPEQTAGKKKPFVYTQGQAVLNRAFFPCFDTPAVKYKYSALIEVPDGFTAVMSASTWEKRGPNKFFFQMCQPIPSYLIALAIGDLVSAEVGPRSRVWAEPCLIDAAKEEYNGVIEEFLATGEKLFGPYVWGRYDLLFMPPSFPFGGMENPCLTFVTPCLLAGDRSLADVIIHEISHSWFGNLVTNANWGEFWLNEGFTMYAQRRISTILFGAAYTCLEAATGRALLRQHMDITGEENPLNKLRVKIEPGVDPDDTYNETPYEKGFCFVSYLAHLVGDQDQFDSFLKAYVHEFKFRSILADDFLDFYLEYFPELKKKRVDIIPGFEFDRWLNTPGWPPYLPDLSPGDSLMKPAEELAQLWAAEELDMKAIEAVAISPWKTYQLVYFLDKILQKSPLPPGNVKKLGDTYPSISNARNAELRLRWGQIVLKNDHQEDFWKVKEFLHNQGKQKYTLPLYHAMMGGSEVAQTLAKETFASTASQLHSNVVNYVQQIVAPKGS

For the molecule `NCCCCC(S)C(=O)O` (centres undefined), the pKi at Aminopeptidase B is 9.05.

The molecule `NC(CC(=O)O)Cc1ccccc1` (centres undefined) registered an inhibition in assay [1] of 0%.

With `NC(CC(=O)NO)Cc1ccccc1` (centres undefined), the inhibition in assay [1] amounted to 0%.

The molecule `NC(Cc1ccccc1)CP(=O)(O)O` (centres undefined) returned an inhibition in assay [1] of 13%.
